Source: ChEMBL document CHEMBL6109176, “Drug-like Antagonists of P2Y Receptor Subtypes: An Update” (J Med Chem, 2025)

Assays:
P2Y purinoceptor 12 [1] = target: T1, P2Y purinoceptor 12 (Homo sapiens, UniProt Q9H244); assay: Inhibition of P2Y12R (unknown origin) by HTS assay
P2Y purinoceptor 1 [2] = target: T2, P2Y purinoceptor 1 (Homo sapiens, UniProt P47900); assay: inhibition of P2Y1R (unknown origin)
P2Y purinoceptor 1 [3] = target: T2, P2Y purinoceptor 1; assay: Binding affinity yo human P2Y1R extracted from baculovirus infected Sf9 cells assessed as inhibition constant incubated for 30 mins
P2Y purinoceptor 2 = P2Y purinoceptor 2 (Homo sapiens, UniProt P41231); assay: Antagonist activity at human P2Y2R stably expressed in 1321N1 cells assessed as UTP-induced Ca2+ accumulation preincubated with compound for 30 mins followed by UTP addition by […]; format: functional, cell-based
Chain of P2Y purinoceptor 2 (P41231 whole entry): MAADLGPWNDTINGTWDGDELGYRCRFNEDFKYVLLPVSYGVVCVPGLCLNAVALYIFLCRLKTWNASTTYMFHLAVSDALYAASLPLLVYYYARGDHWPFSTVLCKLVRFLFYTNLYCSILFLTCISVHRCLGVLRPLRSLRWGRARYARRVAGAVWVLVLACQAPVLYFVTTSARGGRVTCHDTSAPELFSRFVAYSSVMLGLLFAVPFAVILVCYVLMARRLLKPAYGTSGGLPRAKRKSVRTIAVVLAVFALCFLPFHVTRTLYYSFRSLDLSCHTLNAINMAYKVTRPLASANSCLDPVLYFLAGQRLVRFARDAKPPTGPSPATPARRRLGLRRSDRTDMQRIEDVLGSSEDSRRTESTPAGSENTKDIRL

[4] = Antagonist activity at P2Y14R (unknown origin); parameters: species or system Homo sapiens
P2Y purinoceptor 14 = target: T3, P2Y purinoceptor 14 (Homo sapiens, UniProt Q15391); assay: Binding affinity to P2Y14R (unknown origin) expressed in CHO cells assessed as inhibition constant; format: cell-based
T3 sequence (Q15391 whole entry): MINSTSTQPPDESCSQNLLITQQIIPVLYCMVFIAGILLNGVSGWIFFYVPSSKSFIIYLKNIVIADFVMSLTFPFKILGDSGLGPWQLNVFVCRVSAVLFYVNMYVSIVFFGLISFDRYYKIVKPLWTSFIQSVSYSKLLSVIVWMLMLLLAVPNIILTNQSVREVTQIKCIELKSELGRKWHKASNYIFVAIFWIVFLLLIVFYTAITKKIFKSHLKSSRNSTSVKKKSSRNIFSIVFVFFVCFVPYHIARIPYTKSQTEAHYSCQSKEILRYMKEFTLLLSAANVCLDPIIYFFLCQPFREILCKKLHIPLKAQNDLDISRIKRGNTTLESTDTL

P2Y purinoceptor 12 [5] = target: T1, P2Y purinoceptor 12; assay: Antagonist activity at P2Y12R (unknown origin)
P2Y purinoceptor 12 [6] = target: T1, P2Y purinoceptor 12; assay: Binding affinity to human P2Y12R expressed in CHO cells assessed as dissociation constant SPR assay
[7] = Inhibition of platelet aggregation in human platelet rich plasma preincubated for 5 mins followed by aggregation inducer addition and measured after 5 mins by light transmission aggregation method; format: functional

T1 sequence (Q9H244 whole entry): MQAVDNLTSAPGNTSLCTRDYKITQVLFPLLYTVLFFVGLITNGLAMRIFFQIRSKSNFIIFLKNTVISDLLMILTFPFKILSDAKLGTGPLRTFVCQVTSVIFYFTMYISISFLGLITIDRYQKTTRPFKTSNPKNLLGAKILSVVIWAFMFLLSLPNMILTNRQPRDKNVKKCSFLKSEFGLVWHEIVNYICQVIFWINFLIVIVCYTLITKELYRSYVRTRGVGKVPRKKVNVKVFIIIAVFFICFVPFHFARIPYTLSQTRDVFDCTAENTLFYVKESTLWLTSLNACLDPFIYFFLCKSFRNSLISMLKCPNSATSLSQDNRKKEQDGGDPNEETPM
T2 sequence (P47900 whole entry): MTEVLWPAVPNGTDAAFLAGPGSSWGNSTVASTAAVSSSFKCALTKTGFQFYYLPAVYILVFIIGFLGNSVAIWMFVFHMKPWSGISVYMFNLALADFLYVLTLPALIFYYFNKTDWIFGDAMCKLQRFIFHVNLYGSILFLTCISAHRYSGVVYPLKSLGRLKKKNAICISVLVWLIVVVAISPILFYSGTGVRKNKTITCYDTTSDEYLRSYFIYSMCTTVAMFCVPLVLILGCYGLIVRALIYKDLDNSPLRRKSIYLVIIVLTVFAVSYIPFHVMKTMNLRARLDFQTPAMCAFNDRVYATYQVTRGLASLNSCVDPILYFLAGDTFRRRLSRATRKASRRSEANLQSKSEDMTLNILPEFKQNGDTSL

## CCOC(=O)N1CCN(C(=O)[C@H](CCC(=O)O)NC(=O)c2cc(OC(C)(C)C(=O)OCC)c3ccc(C)cc3n2)CC1
P2Y purinoceptor 12 [1]
  IC50: 97 nM

## Cc1nc(/N=N/c2cc([N+](=O)[O-])ccc2Cl)c(COP(=O)(O)O)c(C=O)c1O
P2Y purinoceptor 1 [2]
  IC50: 1100 nM

## CCOC(=O)N1CCN(C(=O)[C@H](CCC(=O)O)NC(=O)c2cc(OC(C)(C)C(=O)O)c3ccc(C)cc3n2)CC1
P2Y purinoceptor 12 [1]
  IC50: 290 nM

## CNc1nc(I)nc2c1ncn2[C@H]1C[C@H](OP(=O)(O)O)[C@]2(COP(=O)(O)O)C[C@H]12
P2Y purinoceptor 1 [3]
  Ki: 0.79 nM

## Cc1nc(/N=N/c2ccc(Cl)c([N+](=O)[O-])c2)c(COP(=O)(O)O)c(C=O)c1O
P2Y purinoceptor 1 [2]
  IC50: 660 nM

## Cc1cc(O)c(C2=Nc3cc(C(F)(F)F)ccc3SC(c3cccc(O)c3)C2)c(=O)o1 (stereo not drawn)
P2Y purinoceptor 2
  IC50: 10900 nM

## O=C(O)c1cc(-c2ccc(-c3cn([C@@H]4O[C@H](CO)[C@@H](O)[C@H](O)[C@H]4O)nn3)cc2)c2ccc(-c3ccc(C(F)(F)F)cc3)cc2c1
[4]
  IC50: 12.8 nM

## CC(NC(=O)C(C)c1ccc(-c2ccccc2)c(F)c1)C(=O)O (stereo not drawn)
[4]
  IC50: 5.12 nM

## N=C1C=CC2=C(c3ccc(C(=O)NCCCCCCn4cc(CCCCN5CCC(c6ccc(-c7cc(C(=O)O)cc8cc(-c9ccc(C(F)(F)F)cc9)ccc78)cc6)CC5)nn4)cc3C(=O)O)C3C=CC(N)=C(S(=O)(=O)O)C3OC2C1S(=O)(=O)O (stereo not drawn)
P2Y purinoceptor 14
  Ki: 0.08 nM

## O=C(O)c1cc(-c2ccc(C3CCN(CCc4cn([C@@H]5O[C@H](CO)[C@@H](O)[C@H](O)[C@H]5O)nn4)CC3)cc2)c2ccc(-c3ccc(C(F)(F)F)cc3)cc2c1
[4]
  IC50: 2.4 nM

## CNc1cc2[nH]c(=O)n(-c3ccc(NC(=O)NS(=O)(=O)c4ccc(Cl)s4)cc3)c(=O)c2cc1F [ELINOGREL]
P2Y purinoceptor 12 [5]
  IC50: < 10000 nM

## CCCCOC(=O)N1CCN(C(=O)[C@H](CP(=O)(O)O)NC(=O)c2cc(N3CC[C@H](OC)C3)nc(-c3ccccc3)n2)CC1 [SELATOGREL]
P2Y purinoceptor 12 [6]
  Kd: 1.5 nM
[7]
  IC50: 14 nM
